Reference: patent US10508120B2, “TYK2 inhibitors and uses thereof” (Nimbus Lakshmi, Inc., priority 2017, dated 2019)
Read-outs that look alike come from different tables or passages of the source.

Tests used:
[1] = biological target: Tyk2/JAK2 (heterodimeric complex) (Homo sapiens (Human), UniProt P29597); test: IL-12 Induced pSTAT4 in Human PBMC; type: cell-based; settings: 1.7 ng/mL IL-12
Source text: The IL-12 Induced pSTAT4 assay evaluates the inhibition of IL-12 induced STAT4 phophorylation mediated by Tyk2/JAK2 (heterodimeric complex).

JAK2 kinase domain (JH1) = JAK2 kinase domain (JH1) (Homo sapiens (Human), UniProt O60674); test: JAK2 Radioactive Kinase Assay; type: biochemical; settings: for inhibition at 10 µM: read-out: JAK2 JH1% Inhibition @ 10 μM
Sequence of JAK2 kinase domain (JH1) (O60674 849-1124): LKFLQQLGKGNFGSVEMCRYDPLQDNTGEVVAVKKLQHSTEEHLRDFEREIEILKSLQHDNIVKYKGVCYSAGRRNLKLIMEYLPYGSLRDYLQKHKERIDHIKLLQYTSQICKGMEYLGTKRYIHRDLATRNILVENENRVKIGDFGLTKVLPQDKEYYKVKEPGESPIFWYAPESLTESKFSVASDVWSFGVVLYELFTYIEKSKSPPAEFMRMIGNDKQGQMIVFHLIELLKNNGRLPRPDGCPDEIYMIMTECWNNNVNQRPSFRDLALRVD
In short: (§1)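 Compounds were tested at a single concentration of 10 μM in a radiometric kinase format against each isolated kinase domain. Activity is reported as percent inhibition at that concentration.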

[2] = biological target: human TYK2 (JH2domain-pseudokinase) (Homo sapiens (Human), UniProt P29597); test: TYK2 JH2 Domain Binding Assay (KINOMEscan)
Sequence of human TYK2 (JH2domain-pseudokinase) (P29597 556-888): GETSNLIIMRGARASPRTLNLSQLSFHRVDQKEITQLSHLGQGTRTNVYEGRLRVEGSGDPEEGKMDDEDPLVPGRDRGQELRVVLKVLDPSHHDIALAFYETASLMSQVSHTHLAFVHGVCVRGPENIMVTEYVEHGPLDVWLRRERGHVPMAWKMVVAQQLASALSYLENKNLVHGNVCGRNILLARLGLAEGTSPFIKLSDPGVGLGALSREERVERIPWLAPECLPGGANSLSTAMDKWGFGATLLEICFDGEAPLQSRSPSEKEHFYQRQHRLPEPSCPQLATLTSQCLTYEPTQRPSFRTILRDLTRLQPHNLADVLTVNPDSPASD
In short: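 Competition binding of a DNA-tagged fusion of human TYK2 JH2 pseudokinase (G556–D888) with NFkB DNA-binding domain, from HEK293 extracts (<0.1 nM final), against immobilised ligand beads; 1 h shaking at room temperature, 0.9% DMSO. Bound kinase quantified by qPCR.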

Tyk2 kinase domain (DH1) = Tyk2 kinase domain (DH1) (Homo sapiens (Human), UniProt P29597); test: Tyk2 Radioactive Kinase Assay; type: biochemical; settings: for inhibition at 10 µM: read-out: Tyk2 JH1% Inhibition @ 10 μM
Sequence of Tyk2 kinase domain (DH1) (P29597 897-1176): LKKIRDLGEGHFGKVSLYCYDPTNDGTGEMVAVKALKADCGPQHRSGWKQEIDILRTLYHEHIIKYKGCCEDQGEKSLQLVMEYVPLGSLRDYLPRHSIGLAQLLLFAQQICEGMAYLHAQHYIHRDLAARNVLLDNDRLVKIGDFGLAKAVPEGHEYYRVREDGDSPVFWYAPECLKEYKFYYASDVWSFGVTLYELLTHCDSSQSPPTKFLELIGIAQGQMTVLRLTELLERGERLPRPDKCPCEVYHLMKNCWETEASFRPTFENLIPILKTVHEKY
In short: as §1

[3] = biological target: JAK2/JAK2 homdimeric complex (Homo sapiens (Human), UniProt O60674); test: GM-CSF Induced pSTAT5 in Human PBMC; type: cell-based; settings: GM-CSF 5 ng/mL for 20 minutes, pSTAT5 by MSD, read-out: PBMC_GMCSF_pSTAT5 IC50
Sequence of JAK2/JAK2 homdimeric complex (O60674 whole entry): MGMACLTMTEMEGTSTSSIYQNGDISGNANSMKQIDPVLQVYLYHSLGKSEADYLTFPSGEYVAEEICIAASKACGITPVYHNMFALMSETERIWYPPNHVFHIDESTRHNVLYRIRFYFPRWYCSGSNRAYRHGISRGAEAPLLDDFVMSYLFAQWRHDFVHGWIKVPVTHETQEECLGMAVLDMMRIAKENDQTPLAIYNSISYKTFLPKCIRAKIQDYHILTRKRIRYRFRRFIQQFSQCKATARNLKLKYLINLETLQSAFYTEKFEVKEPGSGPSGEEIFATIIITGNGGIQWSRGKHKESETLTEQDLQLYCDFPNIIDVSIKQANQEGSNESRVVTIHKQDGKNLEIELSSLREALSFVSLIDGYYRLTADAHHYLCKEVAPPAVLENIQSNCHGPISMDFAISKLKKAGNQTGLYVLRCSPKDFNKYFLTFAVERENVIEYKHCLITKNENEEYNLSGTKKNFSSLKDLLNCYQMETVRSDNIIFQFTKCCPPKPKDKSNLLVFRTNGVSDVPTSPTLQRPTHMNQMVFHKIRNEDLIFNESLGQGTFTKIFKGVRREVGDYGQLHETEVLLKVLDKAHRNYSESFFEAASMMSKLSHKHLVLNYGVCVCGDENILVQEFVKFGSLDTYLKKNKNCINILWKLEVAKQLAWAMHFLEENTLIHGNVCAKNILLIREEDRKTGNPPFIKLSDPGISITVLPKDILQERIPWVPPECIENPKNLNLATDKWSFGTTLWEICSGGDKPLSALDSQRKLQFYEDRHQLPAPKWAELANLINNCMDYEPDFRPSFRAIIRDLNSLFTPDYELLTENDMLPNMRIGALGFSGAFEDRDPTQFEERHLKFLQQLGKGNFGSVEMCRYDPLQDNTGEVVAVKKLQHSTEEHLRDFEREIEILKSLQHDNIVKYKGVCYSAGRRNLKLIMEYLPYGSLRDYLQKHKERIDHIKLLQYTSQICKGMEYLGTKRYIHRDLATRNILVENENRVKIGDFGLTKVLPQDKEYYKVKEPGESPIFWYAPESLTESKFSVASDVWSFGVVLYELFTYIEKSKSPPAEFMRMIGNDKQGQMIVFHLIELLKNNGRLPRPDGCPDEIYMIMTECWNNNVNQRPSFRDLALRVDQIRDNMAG
Sequence of JAK2/JAK2 homdimeric complex (P32927 17-897 partner): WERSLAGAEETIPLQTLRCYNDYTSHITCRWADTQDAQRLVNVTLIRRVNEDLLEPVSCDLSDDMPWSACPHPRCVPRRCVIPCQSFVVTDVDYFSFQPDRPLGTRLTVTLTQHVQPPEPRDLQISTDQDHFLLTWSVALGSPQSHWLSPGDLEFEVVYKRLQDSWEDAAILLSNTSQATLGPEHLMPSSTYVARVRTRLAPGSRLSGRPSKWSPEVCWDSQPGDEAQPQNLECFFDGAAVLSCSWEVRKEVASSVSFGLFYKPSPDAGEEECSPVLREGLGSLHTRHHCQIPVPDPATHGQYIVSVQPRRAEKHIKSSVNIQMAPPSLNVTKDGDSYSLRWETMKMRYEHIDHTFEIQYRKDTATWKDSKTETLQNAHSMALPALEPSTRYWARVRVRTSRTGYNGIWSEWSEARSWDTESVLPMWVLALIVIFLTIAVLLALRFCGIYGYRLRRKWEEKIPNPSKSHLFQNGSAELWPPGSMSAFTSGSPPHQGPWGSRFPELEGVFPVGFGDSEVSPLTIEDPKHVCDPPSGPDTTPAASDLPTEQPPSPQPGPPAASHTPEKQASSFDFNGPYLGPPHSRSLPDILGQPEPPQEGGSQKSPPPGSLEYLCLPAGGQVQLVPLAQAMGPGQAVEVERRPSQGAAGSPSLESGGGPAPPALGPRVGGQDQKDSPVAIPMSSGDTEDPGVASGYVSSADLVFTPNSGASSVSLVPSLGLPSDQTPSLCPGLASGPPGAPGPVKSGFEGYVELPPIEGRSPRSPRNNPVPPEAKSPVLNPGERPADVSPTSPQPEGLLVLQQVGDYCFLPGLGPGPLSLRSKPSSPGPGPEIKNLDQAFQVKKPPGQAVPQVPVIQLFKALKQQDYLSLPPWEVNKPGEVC

Sequence of Tyk2/JAK2 (heterodimeric complex) (P29597 whole entry, other chains not shown): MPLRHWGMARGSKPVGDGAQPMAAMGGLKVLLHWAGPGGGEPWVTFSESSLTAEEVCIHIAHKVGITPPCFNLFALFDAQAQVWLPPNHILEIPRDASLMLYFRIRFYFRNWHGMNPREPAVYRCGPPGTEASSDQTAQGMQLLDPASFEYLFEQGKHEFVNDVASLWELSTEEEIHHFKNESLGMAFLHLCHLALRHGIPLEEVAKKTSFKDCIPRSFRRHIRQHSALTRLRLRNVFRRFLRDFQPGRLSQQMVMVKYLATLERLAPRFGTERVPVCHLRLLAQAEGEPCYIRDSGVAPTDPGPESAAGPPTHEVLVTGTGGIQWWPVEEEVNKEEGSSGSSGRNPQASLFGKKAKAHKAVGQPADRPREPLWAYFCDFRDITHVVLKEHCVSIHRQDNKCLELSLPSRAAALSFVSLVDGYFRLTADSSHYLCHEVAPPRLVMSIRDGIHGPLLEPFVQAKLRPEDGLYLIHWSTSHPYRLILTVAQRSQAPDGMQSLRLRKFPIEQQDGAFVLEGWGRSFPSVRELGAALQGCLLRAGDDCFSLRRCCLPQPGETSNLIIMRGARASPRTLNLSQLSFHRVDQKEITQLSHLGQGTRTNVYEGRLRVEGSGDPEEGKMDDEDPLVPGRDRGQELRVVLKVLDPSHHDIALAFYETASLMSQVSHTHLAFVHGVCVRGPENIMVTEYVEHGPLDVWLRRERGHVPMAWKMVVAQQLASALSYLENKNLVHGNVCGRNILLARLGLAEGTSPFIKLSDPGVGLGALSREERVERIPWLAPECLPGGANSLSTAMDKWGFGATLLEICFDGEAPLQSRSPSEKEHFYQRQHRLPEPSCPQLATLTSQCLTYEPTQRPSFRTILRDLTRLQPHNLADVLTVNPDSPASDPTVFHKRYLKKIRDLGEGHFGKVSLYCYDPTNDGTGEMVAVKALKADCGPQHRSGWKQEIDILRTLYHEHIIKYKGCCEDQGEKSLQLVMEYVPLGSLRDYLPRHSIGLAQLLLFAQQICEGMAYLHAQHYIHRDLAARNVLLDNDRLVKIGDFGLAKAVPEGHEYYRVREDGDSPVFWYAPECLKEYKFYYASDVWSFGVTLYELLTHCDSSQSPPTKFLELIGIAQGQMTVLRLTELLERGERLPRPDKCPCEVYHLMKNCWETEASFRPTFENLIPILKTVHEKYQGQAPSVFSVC

Structure (SMILES)	IC50 [1]	inhibition at 10 µM (JAK2 kinase domain (JH1); compound at 10 μM, ATP 10 μM)	Kd [2]	inhibition at 10 µM (Tyk2 kinase domain (DH1); compound at 10 μM, ATP 10 μM)	IC50 [3]	inhibition at 10 µM (JAK2 kinase domain (JH1); 10 μM compound, 10 μM ATP)	inhibition at 10 µM (Tyk2 kinase domain (DH1); 10 μM compound, 10 μM ATP)	JAK2 JH1% Inhibition @ 10 μM (JAK2 kinase domain (JH1); compound at 10 μM, ATP 10 μM)	Tyk2 JH1% Inhibition @ 10 μM (Tyk2 kinase domain (DH1); compound at 10 μM, ATP 10 μM)	JAK2 JH1% Inhibition @ 10 μM (JAK2 kinase domain (JH1); 10 μM compound, 10 μM ATP)	Tyk2 JH1% Inhibition @ 10 μM (Tyk2 kinase domain (DH1); 10 μM compound, 10 μM ATP)
CNc1cc(Nc2cccc([C@H]3CCCOC3)n2)nc2c(C(=O)N[C@@H]3CC[C@H]3O)cnn12 [I-667]	< 100 nM	< 50%	< 0.2 nM	< 50%	> 12500 nM						
CNc1cc(Nc2cccn(-c3cnn(C)c3)c2=O)nc2c(C(=O)NC3CC3)cnn12 [I-295]	< 100 nM	< 50%	< 0.2 nM	< 50%	> 50000 nM						
CNc1cc(Nc2cc(C)cnc2OCCOC)nc2c(C(=O)NC3CCC3)cnn12 [I-282]	100 to 500 nM	< 50%	0.2 to 1 nM	< 50%	> 2500 nM						
CNc1cc(Nc2cccn([C@H]3CC[C@](C)(OC)CC3)c2=O)nc2c(C(=O)N[C@@H]3CC[C@H]3OC)cnn12 [I-959]	< 100 nM		< 0.2 nM		> 50000 nM					A (percent inhibition at 10 μM lower than 50)	A (percent inhibition at 10 μM lower than 50)
CNc1cc(Nc2cccn(C3CCCCC3)c2=O)nc2c(C(=O)N[C@@H]3CC[C@@H]3O)cnn12 [I-1000]	< 100 nM		< 0.2 nM		> 50000 nM	< 50%	< 50%				
CNc1cc(Nc2cccn(-c3ccc(N4CCOCC4)cn3)c2=O)nc2c(C(=O)NC3CCC3)cnn12 [I-163]	< 100 nM	< 50%	0.2 to 1 nM	< 50%	> 2500 nM						
CNc1cc(Nc2cccnc2OC2CC2)nc2c(C(=O)NCC(C)(C)CO)cnn12 [I-350]	< 100 nM	< 50%	< 0.2 nM	< 50%	> 50000 nM						
CNc1cc(Nc2cccc(N3CCOCC3)n2)nc2c(C(=O)N[C@H]3C[C@H]3F)cnn12 [I-590]	< 100 nM	50 to 70%	< 0.2 nM	< 50%	> 12500 nM						
CNc1cc(Nc2cccn([C@H]3CC[C@@H](OC)CC3)c2=O)nc2c(C(=O)N[C@H]3C[C@H]3F)cnn12 [I-357]	< 100 nM	< 50%	< 0.2 nM	< 50%	> 2500 nM						
CNc1cc(-c2cn(C(C)C)c3ncc(Cl)cc23)nc2c(C(N)=O)cnn12 [I-272, 5-(5-chloro-1-isopropyl-1H-pyrrolo[2,3-b]pyridin-3-yl)-7-(methylamino) pyrazolo[1,5-a]pyrimidine-3-carboxamide]	< 100 nM	< 50%	< 0.2 nM	< 50%	> 12500 nM						
[2H]C([2H])([2H])Oc1ncc(F)cc1Nc1cc(NC)n2ncc(C(=O)NC3CCC3)c2n1 [I-288]	< 100 nM	< 50%	< 0.2 nM	< 50%	> 2500 nM						

Further lines, with some results ahead:

IC50 [1]	inhibition at 10 µM (JAK2 kinase domain (JH1); compound at 10 μM, ATP 10 μM)	Kd [2]	inhibition at 10 µM (Tyk2 kinase domain (DH1); compound at 10 μM, ATP 10 μM)	IC50 [3]	inhibition at 10 µM (JAK2 kinase domain (JH1); 10 μM compound, 10 μM ATP)	inhibition at 10 µM (Tyk2 kinase domain (DH1); 10 μM compound, 10 μM ATP)	Structure (SMILES)	JAK2 JH1% Inhibition @ 10 μM (JAK2 kinase domain (JH1); compound at 10 μM, ATP 10 μM)	Tyk2 JH1% Inhibition @ 10 μM (Tyk2 kinase domain (DH1); compound at 10 μM, ATP 10 μM)	JAK2 JH1% Inhibition @ 10 μM (JAK2 kinase domain (JH1); 10 μM compound, 10 μM ATP)	Tyk2 JH1% Inhibition @ 10 μM (Tyk2 kinase domain (DH1); 10 μM compound, 10 μM ATP)
< 100 nM	< 50%	< 0.2 nM	< 50%	> 50000 nM			CNc1cc(Nc2cccc(N3CCCC3=O)n2)nc2c(C(=O)NC3CCC3)cnn12 [I-94]				
< 100 nM	< 50%	< 0.2 nM	< 50%	> 2500 nM			CNc1cc(Nc2cccn(-c3ccc(F)cc3)c2=O)nc2c(C(=O)N[C@H]3C[C@H]3F)cnn12 [I-132]				
< 100 nM	< 50%	< 0.2 nM	< 50%	> 2500 nM			CNc1cc(Nc2cc(Cl)cn(C3CCCN(C)C3)c2=O)nc2c(C(=O)NC3CC3)cnn12 (centres unmarked) [I-740]				
< 100 nM		< 0.2 nM		> 2500 nM			CNc1cc(Nc2cccc3ocnc23)nc2c(C(=O)N[C@@H]3CC[C@@H]3O)cnn12 [I-770]	A (percent inhibition at 10 μM lower than 50)	A (percent inhibition at 10 μM lower than 50)		
< 100 nM	< 50%	0.2 to 1 nM	< 50%	> 12500 nM			CNc1cc(Nc2cccn(-c3ccn(C)n3)c2=O)nc2c(C(=O)NC3CC3)cnn12 [I-294]				
< 100 nM	< 50%	< 0.2 nM	< 50%	> 12500 nM			CNc1cc(Nc2cc(Cl)cn(-c3cc(C)n(C)n3)c2=O)nc2c(C(=O)N[C@H]3C[C@H]3F)cnn12 [I-315]				
< 100 nM	< 50%	< 0.2 nM	< 50%	> 50000 nM			CNc1cc(Nc2cccnc2OC2CC2)nc2c(C(=O)NC3CCC3O)cnn12 (centres unmarked) [I-392, 5-((2-cyclopropoxypyridin-3-yl)amino)-N-(2-hydroxycyclobutyl)-7-(methylamino)pyrazolo[1,5-a]pyrimidine-3-carboxamide]				
< 100 nM	< 50%	< 0.2 nM	< 50%	> 12500 nM			[2H]C([2H])([2H])Oc1ncc(F)cc1Nc1cc(NC)n2ncc(C(=O)NC3CC3)c2n1 [I-284]				
< 100 nM	50 to 70%	< 0.2 nM	< 50%	> 12500 nM			CNc1cc(Nc2cccc(N3CCOC3=O)n2)nc2c(C(=O)NC3CCC3)cnn12 [I-105]				
< 100 nM	< 50%	< 0.2 nM	< 50%	> 2500 nM			CNc1cc(Nc2cc(F)cn(-c3ccc(C)nn3)c2=O)nc2c(C(=O)N[C@H]3C[C@H]3F)cnn12 [I-198]				
< 100 nM	< 50%	< 0.2 nM	< 50%	> 12500 nM			CCn1cc(Cl)cc(Nc2cc(NC)n3ncc(C(=O)NC4CC4)c3n2)c1=O [I-133, 5-((5-chloro-1-ethyl-2-oo-1,2-dihydropyridin-3-yl)amino)-N-cyclopropyl-7-(methylamino)pyrazolo[1,5-a]pyrimidine-3-carboxamide]				
